Laboratory results as given in patent publication US20060062732A1, “Medicine for detecting lipid components in vivo and vascular endoscope” (Yasumi UCHIDA, priority 2004, published 2006).

What was measured:
[1] = Self-fluorescence of dyes and plaque substances by fluorescent microscopy; assay type: physicochemical; set-up: key to Self-fluorescence colour: B: blue.; G: green.; O: orange.; W: white.; Y: yellow; conditions: for Self-fluorescence present or not: exciting 360/emitting 420 nm or exciting 470/emitting 515 nm
[2] = biological target: T1, ApoB100 (apolipoprotein B100) (Homo sapiens, UniProt P04114); experiment: Dye-evoked fluorescence of ApoB100, fluorescent microscopy; set-up: key: B: blue.; G: green.; O: orange.; W: white.; Y: yellow
T1 construct: purchased ICN Biomedicals, Ohio

[3] = biological target: T1, ApoB100 (apolipoprotein B100); experiment: as above; set-up: key: RO: reddish orange; conditions: ApoB (Table 4)
[4] = biological target: T1, ApoB100 (apolipoprotein B100); experiment: as above; set-up: key: B: blue.; Br: brown.; G: green.; Go: gold.; O: orange.; P: purple.; R: red.; SB: sky blue.; V: violet.; W: white.; Y: yellow; conditions: exciting 360 nm, emitting 420 nm
[5] = exciting filter 360 nm, emitting filter 420 nm
[6] = exciting 360 nm, emitting 420 nm
[7] = exciting 470 nm, emitting 515 nm
[8] = exciting filter 470 nm, emitting filter 515 nm

T1 sequence (P04114 28-4563, species assumed): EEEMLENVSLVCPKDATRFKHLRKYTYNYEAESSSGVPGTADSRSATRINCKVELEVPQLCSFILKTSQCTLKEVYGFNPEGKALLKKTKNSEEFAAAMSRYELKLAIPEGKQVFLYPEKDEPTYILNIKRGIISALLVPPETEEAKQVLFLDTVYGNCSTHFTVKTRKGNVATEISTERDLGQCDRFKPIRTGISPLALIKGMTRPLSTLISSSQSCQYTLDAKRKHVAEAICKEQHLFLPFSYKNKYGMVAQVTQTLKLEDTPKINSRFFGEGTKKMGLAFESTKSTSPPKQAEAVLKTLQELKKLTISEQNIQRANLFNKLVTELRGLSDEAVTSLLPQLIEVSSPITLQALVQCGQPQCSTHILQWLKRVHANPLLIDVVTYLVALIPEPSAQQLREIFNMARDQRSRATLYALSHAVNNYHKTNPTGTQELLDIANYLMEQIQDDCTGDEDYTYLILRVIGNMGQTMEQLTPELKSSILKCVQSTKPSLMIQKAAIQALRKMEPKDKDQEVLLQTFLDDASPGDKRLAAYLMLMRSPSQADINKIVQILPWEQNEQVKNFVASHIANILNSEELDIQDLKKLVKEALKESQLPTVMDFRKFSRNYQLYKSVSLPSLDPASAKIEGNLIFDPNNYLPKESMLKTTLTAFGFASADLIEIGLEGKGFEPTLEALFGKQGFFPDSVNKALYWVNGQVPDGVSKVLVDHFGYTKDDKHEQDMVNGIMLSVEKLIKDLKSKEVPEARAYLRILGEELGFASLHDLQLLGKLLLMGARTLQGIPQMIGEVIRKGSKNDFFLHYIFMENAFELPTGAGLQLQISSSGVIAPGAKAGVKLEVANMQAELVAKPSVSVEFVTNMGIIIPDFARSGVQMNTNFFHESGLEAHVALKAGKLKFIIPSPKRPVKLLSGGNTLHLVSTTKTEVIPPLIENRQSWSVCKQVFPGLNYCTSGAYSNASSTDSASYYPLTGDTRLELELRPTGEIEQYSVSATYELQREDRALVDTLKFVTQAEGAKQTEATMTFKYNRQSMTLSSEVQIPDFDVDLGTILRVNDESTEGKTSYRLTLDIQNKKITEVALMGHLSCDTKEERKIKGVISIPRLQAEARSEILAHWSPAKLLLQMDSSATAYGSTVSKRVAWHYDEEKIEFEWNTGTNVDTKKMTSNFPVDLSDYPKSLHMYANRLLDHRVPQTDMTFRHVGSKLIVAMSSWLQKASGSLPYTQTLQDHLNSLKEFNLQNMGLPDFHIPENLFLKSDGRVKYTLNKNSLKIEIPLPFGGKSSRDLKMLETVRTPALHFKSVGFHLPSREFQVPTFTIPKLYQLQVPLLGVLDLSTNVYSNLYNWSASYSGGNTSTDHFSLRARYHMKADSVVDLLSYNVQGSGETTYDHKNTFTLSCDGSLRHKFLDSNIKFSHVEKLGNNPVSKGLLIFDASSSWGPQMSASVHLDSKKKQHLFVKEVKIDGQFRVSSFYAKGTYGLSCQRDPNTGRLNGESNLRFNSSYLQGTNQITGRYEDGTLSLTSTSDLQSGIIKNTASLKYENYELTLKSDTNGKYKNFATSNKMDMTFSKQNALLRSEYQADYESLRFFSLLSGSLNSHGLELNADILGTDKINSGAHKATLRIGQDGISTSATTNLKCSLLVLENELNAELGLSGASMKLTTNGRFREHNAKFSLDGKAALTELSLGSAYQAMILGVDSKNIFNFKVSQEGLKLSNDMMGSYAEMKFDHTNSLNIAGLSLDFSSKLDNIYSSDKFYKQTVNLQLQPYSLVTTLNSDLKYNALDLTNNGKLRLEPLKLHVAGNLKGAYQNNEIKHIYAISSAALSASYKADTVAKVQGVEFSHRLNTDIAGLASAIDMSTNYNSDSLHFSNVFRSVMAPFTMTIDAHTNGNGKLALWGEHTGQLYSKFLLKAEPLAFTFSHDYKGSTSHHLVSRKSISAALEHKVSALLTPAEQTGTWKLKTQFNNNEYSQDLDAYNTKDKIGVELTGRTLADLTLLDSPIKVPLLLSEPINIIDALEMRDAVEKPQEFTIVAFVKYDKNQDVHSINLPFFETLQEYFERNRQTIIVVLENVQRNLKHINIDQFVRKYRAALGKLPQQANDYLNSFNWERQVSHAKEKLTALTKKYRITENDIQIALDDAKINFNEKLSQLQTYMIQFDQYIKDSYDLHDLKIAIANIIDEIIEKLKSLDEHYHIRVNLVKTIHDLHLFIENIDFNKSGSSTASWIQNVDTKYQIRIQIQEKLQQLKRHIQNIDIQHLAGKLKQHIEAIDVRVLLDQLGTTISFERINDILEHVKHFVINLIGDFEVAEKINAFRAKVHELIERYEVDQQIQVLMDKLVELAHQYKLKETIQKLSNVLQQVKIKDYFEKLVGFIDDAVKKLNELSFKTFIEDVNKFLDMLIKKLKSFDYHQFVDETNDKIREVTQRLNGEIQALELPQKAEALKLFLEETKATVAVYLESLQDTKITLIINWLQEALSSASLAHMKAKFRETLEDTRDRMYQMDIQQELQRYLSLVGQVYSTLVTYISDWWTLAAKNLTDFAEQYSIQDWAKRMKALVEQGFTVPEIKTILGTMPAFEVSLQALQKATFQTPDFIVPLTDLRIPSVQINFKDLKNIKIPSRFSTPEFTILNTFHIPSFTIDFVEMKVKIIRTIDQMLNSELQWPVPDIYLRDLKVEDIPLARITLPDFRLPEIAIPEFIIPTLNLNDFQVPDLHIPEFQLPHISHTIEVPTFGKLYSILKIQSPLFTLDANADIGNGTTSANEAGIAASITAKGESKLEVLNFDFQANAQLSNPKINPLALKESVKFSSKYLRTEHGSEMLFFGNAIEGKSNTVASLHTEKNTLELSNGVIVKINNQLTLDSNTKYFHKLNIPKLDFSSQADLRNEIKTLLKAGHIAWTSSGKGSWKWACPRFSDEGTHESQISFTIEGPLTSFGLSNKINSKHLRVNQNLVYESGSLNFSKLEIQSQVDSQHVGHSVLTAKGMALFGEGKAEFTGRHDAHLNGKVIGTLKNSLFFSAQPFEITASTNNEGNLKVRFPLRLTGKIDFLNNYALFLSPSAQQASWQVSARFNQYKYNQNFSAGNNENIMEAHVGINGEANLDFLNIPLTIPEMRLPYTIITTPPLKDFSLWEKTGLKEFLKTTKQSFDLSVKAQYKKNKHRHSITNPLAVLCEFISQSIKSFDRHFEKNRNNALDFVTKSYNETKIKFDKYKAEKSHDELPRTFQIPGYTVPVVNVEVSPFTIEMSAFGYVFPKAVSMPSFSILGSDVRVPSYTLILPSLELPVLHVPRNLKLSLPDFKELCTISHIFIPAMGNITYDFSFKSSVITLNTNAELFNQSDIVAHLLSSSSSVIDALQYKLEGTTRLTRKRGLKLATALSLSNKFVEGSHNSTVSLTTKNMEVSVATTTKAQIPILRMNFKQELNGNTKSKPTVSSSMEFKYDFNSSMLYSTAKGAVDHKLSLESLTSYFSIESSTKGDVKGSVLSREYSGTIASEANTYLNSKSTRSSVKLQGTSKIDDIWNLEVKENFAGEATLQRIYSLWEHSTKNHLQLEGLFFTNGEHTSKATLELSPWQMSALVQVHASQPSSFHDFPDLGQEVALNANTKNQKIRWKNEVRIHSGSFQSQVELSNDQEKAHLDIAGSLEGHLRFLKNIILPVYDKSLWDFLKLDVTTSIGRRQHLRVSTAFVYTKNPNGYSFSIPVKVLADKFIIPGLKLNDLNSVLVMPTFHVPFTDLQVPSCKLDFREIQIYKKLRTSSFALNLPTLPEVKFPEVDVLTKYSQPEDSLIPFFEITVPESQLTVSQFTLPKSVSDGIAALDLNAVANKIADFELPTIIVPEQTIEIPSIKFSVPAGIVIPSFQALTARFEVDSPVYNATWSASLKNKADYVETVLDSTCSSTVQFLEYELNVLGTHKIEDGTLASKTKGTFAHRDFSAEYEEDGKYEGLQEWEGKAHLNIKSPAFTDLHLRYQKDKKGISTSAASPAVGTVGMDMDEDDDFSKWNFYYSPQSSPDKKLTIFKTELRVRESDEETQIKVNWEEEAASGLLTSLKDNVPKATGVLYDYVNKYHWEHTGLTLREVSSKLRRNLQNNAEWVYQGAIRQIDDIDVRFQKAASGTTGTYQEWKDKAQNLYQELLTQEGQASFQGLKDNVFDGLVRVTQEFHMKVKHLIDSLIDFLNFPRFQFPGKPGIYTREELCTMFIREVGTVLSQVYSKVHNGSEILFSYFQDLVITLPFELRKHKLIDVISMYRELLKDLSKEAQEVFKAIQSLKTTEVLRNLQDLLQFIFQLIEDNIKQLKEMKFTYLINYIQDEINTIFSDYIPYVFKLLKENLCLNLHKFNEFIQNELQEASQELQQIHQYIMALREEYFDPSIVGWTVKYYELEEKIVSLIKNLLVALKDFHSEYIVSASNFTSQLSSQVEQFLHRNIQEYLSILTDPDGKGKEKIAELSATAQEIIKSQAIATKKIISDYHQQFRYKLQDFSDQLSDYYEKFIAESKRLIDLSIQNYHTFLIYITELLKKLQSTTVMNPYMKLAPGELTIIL

Row | Molecule | Self-fluorescence present or not [1] | Self-fluorescence colour [1, 5] | Dye-evoked fluorescence colour [2, 7] | Self-fluorescence colour [1, 8] | other results
1 | CC1=NN(c2cc(Cl)c(S(=O)(=O)[O-])cc2Cl)C(=O)C1N=Nc1ccc(S(=O)(=O)[O-])cc1.[Na+].[Na+] (stereo not drawn) [Lissamine fast yellow] | no self-fluorescence | – | – | – | –
2 | phosphatidylcholine [PC] | had self-fluorescence | W | – | – | –
3 | Cc1cc(-c2ccc(/N=N/c3ccc4c(S(=O)(=O)O)cc(S(=O)(=O)O)c(N)c4c3O)c(C)c2)ccc1/N=N/c1ccc2c(S(=O)(=O)O)cc(S(=O)(=O)O)c(N)c2c1O [Evans blue] | no self-fluorescence | – | O | – | Dye-evoked fluorescence colour [2, 6]: O
4 | CC[n+]1c(-c2ccccc2)c2cc(N)ccc2c2ccc(N)cc21 [Homidium chloride] | has self-fluorescence | Y | – | O | Dye-evoked fluorescence colour [3, 6]: RO; Dye-evoked fluorescence colour [3, 7]: RO
5 | CCCCC/C=C\C/C=C\CCCCCCCC(=O)O[C@H]1CC[C@@]2(C)C(=CC[C@H]3[C@@H]4CC[C@H]([C@H](C)CCCC(C)C)[C@@]4(C)CC[C@@H]32)C1 [Cholesteryl linolate] | had self-fluorescence | W | – | Y | –
6 | Cc1cc(-c2ccc(/N=N/c3c(S(=O)(=O)[O-])cc4cc(S(=O)(=O)[O-])cc(N)c4c3O)c(C)c2)ccc1/N=N/c1c(S(=O)(=O)[O-])cc2cc(S(=O)(=O)[O-])cc(N)c2c1O.[Na+].[Na+].[Na+].[Na+] [Tripan blue] | no self-fluorescence | – | O | – | Dye-evoked fluorescence colour [4]: P
7 | CC1=C(/C=C/C(C)=C/C=C/C(C)=C/C=C/C=C(C)/C=C/C=C(C)/C=C/C2=C(C)CCCC2(C)C)C(C)(C)CCC1 [beta-Carotene] | had self-fluorescence | O | – | O | –
8 | CC[N+](CC)=c1ccc2nc3c(cc(N)c4ccccc43)oc-2c1 [Nile blue] | no self-fluorescence | – | G | – | Dye-evoked fluorescence colour [2, 6]: O
9 | CC(C)CCC[C@@H](C)[C@H]1CC[C@H]2[C@@H]3CC=C4C[C@@H](O)CC[C@]4(C)[C@H]3CC[C@]12C [free Cholesterol] | had self-fluorescence | W | – | Y | –
10 | O=S(=O)([O-])c1cccc(N=Nc2ccc(Nc3ccccc3)cc2)c1.[Na+] [Metanyl yellow] | no self-fluorescence | – | – | – | –
